In one test the test system is ICR 27 leukemic cells. The test is described as follows: Reduction in ICR 27 leukemic cells by exogenous application of peptide (cell count). The format is cell-based, human. The conditions noted are these: for cell killing: ICR-27, peptide added exogenously without electroporation; for Cells/ml after 23 h: 1 h in serum-free medium then growth medium, average of duplicate counts. As to the method:
At the maximum dose tested in this experiment, pDBD*4R9 caused over a 2-log loss of cells.
At t=0, growing cells were removed from medium, washed, and plated at 4.0×10^6 cells/ml in serum-free medium to which the peptide was added from a stock solution. Control peptide was GnRHR7 (Gonadotropin Releasing Hormone with a 7-arginine polymer added covalently). One hour later cells were diluted into growth medium. After 23 h, each culture was counted in duplicate. Average values are shown. Similar dose-related responses to pDBD*4R9 have been seen in 3 experiments.

Test [1] has as its system ICR-27 lymphoblastic clonal cell line. Put plainly: Electroporation of pDBD*4 into ICR-27 cells, cell death. The format is cell-based, human. The conditions noted are these: transfected by electroporation. How it is done: FIG. 1 (A and B). Human leukemic ICR-27-4 cells were electroporated (500 μF, 300V) with 2 μg pDBD*4 peptide or without peptide (Control). Equal concentrations of cells were then plated and quantified for viable cell numbers over time.
(§1) Derivation of ICR-27 cells is found in Molecular & Cellular Biology (1981) 1:512-21 and of CEM1-15 and CEM7-14 in Genomics (2003) 81:175-97.
Equal concentrations of cells were then plated.
In FIG. 1A, cell viability was evaluated after 4 hr using the WST-1 dye reduction assay (8,9). Quadruplicate wells of a 96 well plate each received 200 μl of cells plus 20 μl of WST-1 dye. The plate was then placed in a tissue culture incubator for 4 hours. Spectrophotometric analysis was carried out on a plate reader with Absorbance read at 450-595 nm. Absorbancies were corrected for the average of triplicate chemical blanks (200 μl growth medium plus 20 μl WST-1 dye). Data are presented as percent of control.
In FIG. 1B, cell concentrations were determined after 4 hr. and 24 hr. by hemocytometer counts of duplicate aliquots, with trypan blue dye added in the 24 hr samples to discriminate non-viable, but membrane-intact cells.

Test [2] deals with CEM 1-15 lymphoblastic clonal cell line. The test is described as follows: Electroporation of pDBD*4 into CEM 1-15 cells, cell death. In kind it is cell-based, human. The conditions noted are these: transfected by electroporation.
Text: as §1

For test [3], the system named is CEM C7-14 lymphoblastic clonal cell line. Put plainly: Electroporation of pDBD*4 into CEM C7-14 cells, cell death. In kind it is cell-based, human. Conditions: transfected by electroporation.
Text: as §1

For test [4], the system named is cell clones from the CEM leukemic cell system. The test is described as follows: pDBD*4 in glucocorticoid-susceptible and -resistant clones of the CEM leukemic cell system. In kind it is cell-based, human. As to the method: pDBD*4 was tested in cell clones from the CEM leukemic cell system. Some of those clones are susceptible to apoptotic cell death evoked by steroids of the glucocorticoid class; others are not. Both types of clones were killed by electroporation of pDBD*4 into the cells, whereas exogenous application of pDBD*4 produced no effect.

The subject of test [5] is non-malignant NIH-3T3 cells. The test is described as follows: WST-1 dye reduction viability assay, NIH-3T3. In kind it is cell-based. As to the method:
(§2) A more quantitative assay was carried out using as an endpoint the reduction of a water-soluble tetrazolium dye (WST-1). This method has been employed to follow the effects of various chemotherapeutic agents on malignant cells (Hwang, W. S., Chen, L. M., Huang, S. H., Wang, C. C., Tseng, M. T. Prediction of chemotherapy response in human leukemia using in vitro chemosensitivity test. Leuk Res. 17:685-688, 1993; Pieters, R., Loonen, A. H., Huismans, D. R., Broekema, G. J., Dirven, M. W., Heyenbrok, M. W., Hahlen, K., Veerman, A. J. In vitro drug sensitivity of cells with children with leukemia using the MTT assay with approved culture conditions. Blood 76:2327-2336, 1990).
(§3) Viable cells can reduce the dye; dead cells cannot. The effects on pDBD*4R9 on MCF-7 breast cancer cells and non-malignant NIH-3T3 cells were compared (Table 2).
(§4) 20,000 cells were plated in triplicate in a 96 well plate. 24 hr later, cells were washed once and growth medium was replaced with serum free medium containing pDBD*4R9 (termed ‘Frag49’ in the table) or no peptide (Control) and placed in a tissue culture incubator at 37 deg. After 1 hr, serum-containing medium was added to each well and the plates were reincubated for 5 hr. 20 μl of WST-1 dye was then added to each well, and 4 hr later, Absorbance at 450-595 nm was determined spectrophotometrically. A chemical blank (avg. of 4 wells, medium plus dye only) was subtracted from each raw score.

In test [6] the test system is MCF-7 breast cancer cells. Put plainly: WST-1 dye reduction viability assay, MCF-7. The format is cell-based, human. How it is done: as §2, §3, §4
In general terms: Tetrazolium assays rely on reduction of a dye to a coloured formazan, in cell work by metabolically active cells.

The subject of test [7] is colon cancer line, CaCo-2. Put plainly: WST viability assay, colon cancer line. The format is cell-based. As to the method: (§5) For each cell line, the protocol was the same for determining the effects of pDBD*4R9.
(§6) Cells were plated in equal numbers and washed free of growth medium.
(§7) The peptide pDBD*4R9 was then added to the cells for one hour, after which they were returned to growth medium.
(§8) At a suitable interval thereafter, they were assayed for viability by use of the WST assay (described above), which measures the ability of viable cells' mitochondria to metabolize and therefore change the color of a water soluble tetrazolium dye (WST). By measuring the absorbance of the color, one has a quantitative correlate of viability: More absorbance=more viable cells.

Test [8] concerns human leukemic CEM C714 cells. Put plainly: Exogenous peptide on CEM C7-14 leukemic cells (WST viability). The format is cell-based. As to the method:
(§9) As shown below, pDBD*R9 was administered to CEM cell clones ICR-27, C7-14, and C1-15. Two of these clones are resistant to the synthetic glucocorticoid dexamethasone, commonly used in the treatment of acute lymphoblastic leukemia.
as §5, §6, §7, §8

The test system of another test is CEM cell clone C1-15. Put plainly: Exogenous peptide on CEM clone C1-15. In kind it is cell-based, human. Conditions: CEM clone C1-15, peptide administered exogenously. As to the method: as §9
Another test has as its system SWB-39 glioma. The test is described as follows: Killing of SWB-39 glioma cells. In kind it is cell-based.
For test [9], the system named is basal cell carcinoma cells. The test is described as follows: Killing of basal cell carcinoma cells. Conditions: line of basal cell carcinoma cells. In kind it is cell-based.
Test [10] deals with breast cancer GT-MCF-7 cells. Put plainly: AlarmarBlue viability assay on GT-MCF-7 cells. The format is cell-based, human. The conditions noted are these: GT-MCF-7, four-hour treatment. As to the method:
as §5
Cells were plated in equal numbers and washed free of growth medium. […]
In the experiment on MCF-7 cells, an equivalent assay (AlarmarBlue) was used.

For test [11], the system named is MCF-7 breast cancer cells. Put plainly: Killing of MCF-7 breast cancer cells (qualitative). The format is cell-based, human.
[12] abbreviates: NIH-3T3, 1 h peptide, 5 h reincubation, 4 h dye, blank subtracted.
Setting [13] is: MCF-7, 1 h peptide, 5 h reincubation, 4 h dye, blank subtracted.

This is an account of results in US20090203594A1, “Anticancer peptide” (priority 2004, published 2009).

Like-named read-outs stand apart in the source and are kept apart here. No end group written: not given here.

As to “tyr-leu-cys-ala-gly-arg-asn-asp-cys-ile-ile-ala-ile-lys-phe-glu-glu-lys-thr-ala-gln-his-ala-ala-ile-glu-asn-val-phe-arg-leu-glu (YLCAGRNDCIIAIKFEEKTAQHAAIENVFRLE) [pDBD*4, 32-amino acid synthetic polypeptide, portion of the 89 aa peptide encoded by gene 398-465*]”, the cell killing entry was “did not” in the test on ICR 27 leukemic cells; “killed” in test [4] (electroporation into glucocorticoid-susceptible and non-susceptible CEM clones). In addition, the cell death result in [1], in test [2] and in test [3] was “causes cell death” throughout. Moreover, the effect on cells result in [4] (exogenous application, CEM clones) is reported as “no effect”.
Take “RRRRRRRRRYLCAGRNDCIIAIKFEEKTAQHAAIENVFRLE (cysteines drawn unpaired) [pDBD*4R9]”: the “Cells/ml after 23 h” value in the test on ICR 27 leukemic cells (5 μM peptide) is reported as 1.8 × 10^5 Cells/ml; in the test on ICR 27 leukemic cells (10 μM peptide), 1.95 × 10^5 Cells/ml; with ICR 27 leukemic cells (20 μM peptide), 0.5 × 10^5 Cells/ml. Also, the “cell loss / growth inhibition with increasing concentrations” value in the test with ICR 27 leukemic cells (ICR27-4, increasing concentrations) was “caused cell loss in a dose-dependent manner”. This substance also had a loss of cells with ICR 27 leukemic cells (ICR27-4, maximum dose tested) of over 2 log. The cell killing result is “killed the cells in a dose dependent manner” with ICR 27 leukemic cells; “killed in a dose-dependent manner” in the test on ICR 27 leukemic cells (listed as pDBD*R9); “killed in a dose-dependent manner” in test [8] (CEM clone C7-14, peptide administered exogenously); “killed in a dose-dependent manner” with CEM cell clone C1-15. For the same substance, the “metabolism of the tetrazolium dye” value in [5] (NIH-3T3, dose of Table 2) is “not significantly altered”. Besides, the “WST-1 Absorbance, 450-595 nm, Well 1” value in test [5] (setting [12]) is listed as 0.199; in [6] (setting [13]), 0.045. Also, the “WST-1 Absorbance, 450-595 nm, Well 2” value in test [5] (setting [12]) came out at 0.216; in test [6] (setting [13]) it was 0.087. Moreover, the “WST-1 Absorbance, 450-595 nm, Well 3” value stood at 0.196 in test [5] (setting [12]) and 0.289 in test [6] (setting [13]). Also, the “WST-1 Absorbance, 450-595 nm, Avg.” value in [5] (NIH-3T3, average of 3 wells) is listed as 0.204; in test [6] (MCF-7, average of 3 wells) it was 0.140. For the same substance, the “average reduction in ability to metabolize the tetrazolium dye” value in [6] (MCF-7, dose of Table 2) is listed as “over 3 fold”. The Absorbance in test [7] (Expt 1, 25 microM, duplicates, avg +/- range) is 0.08 +/− 0.01; in test [7] (Expt 1, 50 microM, duplicates, avg +/- range) it was 0.16 +/− 0.005; in test [7] (Expt 2, 100 microM, triplicates, avg +/- 1 SD) it was 0.19 +/− 0.05. Moreover, the estimated cell kill in test [7] (colon cancer cells, single treatment, 25-100 microM) is given as 50-75%. Further, the “anticancer effect (FIG. 3)” value in test [8] (CEM C714 cells) is reported as “significant anticancer effects”. Besides, the “killing activity / cell death” value in the test with SWB-39 glioma is on record as “caused death”; in the test with SWB-39 glioma (listed as pDBD*R9), “Killing activity”; in [9] it was “caused death”; in [9] (listed as pDBD*R9), “Killing activity”; in test [11], “caused death”; in test [11] (listed as pDBD*R9) it was “Killing activity”. Besides, the “anticancer effect (FIG. 2)” value in test [10] is “significant anticancer effects”.
